In ChEMBL document CHEMBL3351857, “Synthesis and biological evaluation of 2,3'-diindolylmethanes as agonists of aryl hydrocarbon receptor” (Bioorg Med Chem Lett, 2014):

Columns and labels:
[1] = biological target: T1, Aryl hydrocarbon receptor (Homo sapiens, UniProt P35869); assay: Activation of AhR in human HepG2 cells assessed as fluorescence after 24 hrs incubation by EROD assay; type: cell-based
T1 sequence (P35869 whole entry): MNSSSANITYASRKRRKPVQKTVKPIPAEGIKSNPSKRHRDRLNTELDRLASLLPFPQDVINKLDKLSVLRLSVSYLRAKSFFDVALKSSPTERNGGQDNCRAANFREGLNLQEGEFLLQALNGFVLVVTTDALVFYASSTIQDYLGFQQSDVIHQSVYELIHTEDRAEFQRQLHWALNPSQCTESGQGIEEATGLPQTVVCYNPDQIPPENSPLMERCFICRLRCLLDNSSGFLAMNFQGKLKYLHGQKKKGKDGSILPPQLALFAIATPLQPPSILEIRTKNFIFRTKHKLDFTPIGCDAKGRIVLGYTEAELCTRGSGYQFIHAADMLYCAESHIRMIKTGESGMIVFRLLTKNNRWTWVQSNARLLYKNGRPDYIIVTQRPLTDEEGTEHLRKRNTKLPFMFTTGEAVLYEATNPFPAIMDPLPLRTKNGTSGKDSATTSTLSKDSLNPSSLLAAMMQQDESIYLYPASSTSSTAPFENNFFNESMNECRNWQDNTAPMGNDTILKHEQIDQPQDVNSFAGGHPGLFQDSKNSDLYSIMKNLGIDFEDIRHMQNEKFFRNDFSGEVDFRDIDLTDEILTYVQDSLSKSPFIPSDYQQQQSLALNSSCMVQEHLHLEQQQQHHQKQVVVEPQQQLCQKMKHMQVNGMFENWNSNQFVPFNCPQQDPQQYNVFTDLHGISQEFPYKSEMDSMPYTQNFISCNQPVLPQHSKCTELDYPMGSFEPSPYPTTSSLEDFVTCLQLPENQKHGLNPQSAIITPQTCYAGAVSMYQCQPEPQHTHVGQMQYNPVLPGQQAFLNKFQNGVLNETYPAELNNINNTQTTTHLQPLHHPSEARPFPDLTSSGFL

[2] = biological target: T2, Aryl hydrocarbon receptor (AhR) (Homo sapiens, UniProt P35869); assay: Activation of AhR in human HepG2 cells assessed as fluorescence after 24 hrs incubation at 10 nM by EROD assay relative to control; type: cell-based; conditions: read-out: FC
T2 sequence (P35869 whole entry): T1 sequence (P35869 whole entry)

Homo sapiens = species on record: Homo sapiens; assay: Half life in human; type: ADME, organism-based; conditions: in vivo

Row | fold induction at 24 h, 0.01 µM [2] | Compound | also measured
1 | – | Clc1ccc2[nH]cc(Cc3cc4ccccc4[nH]3)c2c1 | EC50 [1]: > 6.7 µM
2 | 6 | Cn1cc(Cc2[nH]c3ccccc3c2C=O)c2ccccc21 | –
3 | – | Clc1cc2c(cc1Cl)Oc1cc(Cl)c(Cl)cc1O2 [2,3,7,8-TETRACHLORODIBENZO-P-DIOXIN] | t1/2 (Homo sapiens): 7 yr
4 | 5 | O=Cc1c(Cc2c[nH]c3ccc(Cl)cc23)[nH]c2ccccc12 | –
